Measured values as given in patent US10221175B2, “Substituted pyrrolo[3,4-e]indolizines, imidazo[1,2-a]pyrrolo[3,4-e]pyridines, pyrrolo[3,4-e][1,2,4]triazolo[1,5-a]pyridines and pyrrolo[3,4-e][1,2,4]triazolo[4,3-a]pyridines as positive allosteric modulators of muscarinic acetylcholine receptor M1” (Vanderbilt University, priority 2015, dated 2019).
pEC50: −log10 of the molar value.

Target: T1, mAChR M1 (UniProt P11229)
T1 sequence (P11229 1-460): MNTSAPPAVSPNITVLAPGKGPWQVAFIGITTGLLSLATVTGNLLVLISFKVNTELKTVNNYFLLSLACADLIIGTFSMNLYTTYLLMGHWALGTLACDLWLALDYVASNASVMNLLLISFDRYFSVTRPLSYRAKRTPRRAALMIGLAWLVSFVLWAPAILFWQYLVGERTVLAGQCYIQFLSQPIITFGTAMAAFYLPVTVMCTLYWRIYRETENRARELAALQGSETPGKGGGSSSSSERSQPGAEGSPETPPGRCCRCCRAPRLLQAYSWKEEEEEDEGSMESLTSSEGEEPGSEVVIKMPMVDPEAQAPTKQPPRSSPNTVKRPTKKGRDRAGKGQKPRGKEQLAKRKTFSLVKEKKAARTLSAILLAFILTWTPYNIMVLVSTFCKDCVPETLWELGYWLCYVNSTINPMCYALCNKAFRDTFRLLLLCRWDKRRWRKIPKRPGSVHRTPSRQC
Test: mAChR M1 cell-based functional assay (calcium mobilization, potentiation of EC20 acetylcholine response)
Settings: for M1 AChmax (%): maximal response as % of ACh maximum, CHO-K1 cells expressing M1; for pEC50: positive allosteric modulator activity, concentration-dependent increase in EC20 acetylcholine response, CHO-K1 cells, >10 μM estimated where no plateau but >20% increase in ACh response
Excerpt: Chinese hamster ovary (CHO-K1) cells stably expressing rat (r)M1 were purchased from the American Type Culture Collection and cultured according to their indicated protocol. CHO cells stably expressing human (h)M2, hM3, and hM5 were described previously (Levey, et al., 1991); hM1 and hM4 cDNAs were purchased from Missouri S&T cDNA Resource; rM4 cDNA was provided by T. I. Bonner (National Institutes of Health, Bethesda, Md.). rM2 and rM3 were cloned from a rat brain cDNA library and sequence verified. hM1, rM2, rM3, hM4, and rM4 cDNAs were used to stably transfect CHO-K1 cells purchased from the American Type Culture Collection using Lipofectamine2000. To make stable rM2, hM2, rM3, hM4, and rM4 cell lines for use in calcium mobilization assays, these cells also were stably transfected with a chimeric G-protein (Gqi5) (provided by B. R. Conklin, University of California, San Francisco) using Lipofectamine 2000. rM1, hM1, rM3, hM3, rM5, and hM5 cells were grown in Ham's F-12 medium containing 10% heat-inactivated fetal bovine serum (FBS), 20 mM HEPES, and 50 μg/mL G418 sulfate. rM2-Gqi5, hM2-Gqi5, and hM4-Gqi5 cells were grown in the same medium also containing 500 μg/mL Hygromycin B. Stable rM4-Gqi5 cells were grown in DMEM containing 10% heat-inactivated FBS, 20 mM HEPES, 400 μg/mL G418 sulfate, and 500 μg/mL Hygromycin B.
For high throughput measurement of agonist-evoked increases in intracellular calcium, CHO-K1 cells stably expressing muscarinic receptors were plated in growth medium lacking G418 and hygromycin at 15,000 cells/20 μL/well in Greiner 384-well black-walled, tissue culture (TC)-treated, clear-bottom plates (VWR). Cells were incubated overnight at 37° C. and 5% CO2. The next day, cells were washed using an ELX 405 (BioTek) with four washes (80 μL) of assay buffer then aspirated to 20 μL. Next, 20 μL of 16 μM Fluo-4/acetoxymethyl ester (Invitrogen, Carlsbad, Calif.) prepared as a 2.3 mM stock in DMSO and mixed in a 1:1 ratio with 10% (w/v) Pluronic F-127 and diluted in assay buffer was added to the wells and the cell plates were incubated for 50 min at 37° C. and 5% CO2. Dye was removed by washing with the ELX 405 (four 80 μL washes of assay buffer) then aspirated to 20 μL. Compound master plates were formatted in an 11 point CRC format (1:3 dilutions) in 100% DMSO with a starting concentration of 10 mM using the BRAVO liquid handler (Agilent). Test compound CRCs were then transferred to daughter plates (240 nL) using the Echo acoustic plate reformatter (Labcyte, Sunnyvale, Calif.) and then diluted into assay buffer (40 μL) to a 2× stock using a Thermo Fisher Combi (Thermo Fisher Scientific, Waltham, Mass.).
Calcium flux was measured using the Functional Drug Screening System (FDSS) 6000 (Hamamatsu Corporation, Tokyo, Japan) as an increase in the fluorescent static ratio. Compounds were applied to cells (20 μL, 2×) using the automated system of the FDSS 6000 at 4 s into the 300 s protocol and the data were collected at 1 Hz. At 144 s into the 300s protocol, 10 μL of an EC20 concentration of the muscarinic receptor agonist acetylcholine was added (5×), followed by the addition of 12 μL an EC8O concentration of acetylcholine at the 230 s time point (5×). Agonist activity was analyzed as a concentration-dependent increase in calcium mobilization upon compound addition. Positive allosteric modulator activity was analyzed as a concentration-dependent increase in the EC20 acetylcholine response. Antagonist activity was analyzed as a concentration-dependent decrease in the EC80 acetylcholine response. Concentration-response curves were generated using a four-parameter logistical equation in XLfit curve fitting software (IDBS, Bridgewater, N.J.) for Excel (Microsoft, Redmond, Wash.) or Prism (GraphPad Software, Inc., San Diego, Calif.). […]

Structure (SMILES)	M1 AChmax (%)	pEC50
Cn1cc(-c2cc(F)c(CN3Cc4ccc5nncn5c4C3=O)c(F)c2)cn1 [Compound 3]	83%	6.18
O=C1c2c(ccc3nncn23)CN1Cc1ccc(-c2cnc3ccccc3c2)cc1F [Compound 4]	73%	5.76
O=C1c2c(ccc3nncn23)CN1Cc1c(F)cc(-c2ccc3ncccc3c2)cc1F [Compound 5]	81%	6.13
COc1ccc(-c2cc(F)c(CN3Cc4ccc5nncn5c4C3=O)c(F)c2)cn1 [Compound 7]	70%	5.58
O=C1c2c(ccc3nncn23)CN1Cc1c(F)cc(-c2cnc3ccccc3c2)cc1F [Compound 13]	57%	5.74
O=C1c2c(ccc3nncn23)CN1Cc1cc(-c2ccc3ncccc3c2)ccc1F [Compound 25]		< 4.52
COc1ccc(-c2ccc(F)c(CN3Cc4ccc5nncn5c4C3=O)c2)cn1 [Compound 26]		< 4.52
Cn1cc(-c2cc(F)c(CN3Cc4ccc5nccn5c4C3=O)c(F)c2)cn1 [Compound 28, 2-(2,6-difluoro-4-(1-methyl-1H-pyrazol-4-yl)benzyl)-2,3-dihydro-1H-imidazo[1,2-a]pyrrolo[3,4-e]pyridin-1-one]	67.7%	5.63
Cc1cn2c3c(ccc2n1)CN(Cc1c(F)cc(-c2cnn(C)c2)cc1F)C3=O [Compound 29]		< 4.52
Cn1cc(-c2cc(F)c(CN3Cc4ccc5ncnn5c4C3=O)c(F)c2)cn1 [Compound 31, 7-(2,6-difluoro-4-(1-methyl-1H-pyrazol-4-yl)benzyl)-6,7-dihydro-8H-pyrrolo[3,4-e][1,2,4]triazolo[1,5-a]pyridin-8-one]	85.3%	5.79
Cn1cc2cc(-c3cc(F)c(CN4Cc5ccc6nccn6c5C4=O)c(F)c3)ccc2n1 [Compound 35]	42%	
Cc1ccc(CN2Cc3ccc4nccn4c3C2=O)cn1 [Compound 36]	25%	< 5.00
O=C1c2c(ccc3nccn23)CN1Cc1ccc(-n2ccnn2)nc1 [Compound 37]	26%	< 5.00
O=C1c2c(ccc3nccn23)CN1Cc1ccc(N2CCOCC2)nc1 [Compound 38]	26%	< 5.00
O=C1c2c(ccc3nccn23)CN1Cc1c(F)cc(-c2ccc3ncccc3c2)cc1F [Compound 39]	28%	
O=C1c2c(ccc3nccn23)CN1Cc1ccc(-n2cccn2)cc1F [Compound 40]	26%	< 5.00
CNC(=O)c1ccc(CN2Cc3ccc4nccn4c3C2=O)cc1 [Compound 41]	38%	
O=C1c2c(ccc3nccn23)CN1Cc1ccc(-n2nccn2)cc1 [Compound 42]	35%	< 5.00

The next lines start with the values.

M1 AChmax (%)	pEC50	Structure (SMILES)
72 (n = 2) %		Cn1cc2c(-c3cc(F)c(CN4Cc5ccc6nncn6c5C4=O)c(F)c3)cccc2n1 [Compound 1, 7-(2,6-difluoro-4-(2-methyl-2h-indazol-4-yl)benzyl)-6,7-dihydro-8H-pyrrolo[3,4-e][1,2,4]triazolo [4,3-a]pyridin-8-one]
78%	6.16	Cn1cc2c(-c3ccc(CN4Cc5ccc6nncn6c5C4=O)c(F)c3)cccc2n1 [Compound 2, 7-(2-fluoro-4-(2-methyl-2H-indazol-4-yl)benzyl)-6,7-dihydro-8H-pyrrolo [3,4-e][1,2,4]triazol[4,3-a]pyridin-8-one]
84%	6.31	Cn1cc2cc(-c3cc(F)c(CN4Cc5ccc6nncn6c5C4=O)c(F)c3)ccc2n1 [Compound 6]
82%	5.97	Cc1ccc(-c2ccc(CN3Cc4ccc5nncn5c4C3=O)c(F)c2)c2cn(C)nc12 [Compound 8]
90%	6.30	Cn1cc2cc(-c3ccc(CN4Cc5ccc6nncn6c5C4=O)c(F)c3)ccc2n1 [Compound 9, 7-(2-fluoro-4-(2-methyl-2H-indazol-5-yl)benzyl)-6,7-dihydro-8H-pyrrolo [3,4-e][1,2,4]triazolo[4,3-a]pyridin-8-one]
84%	5.80	O=C1c2c(ccc3nncn23)CN1Cc1ccc(-c2ccc3ncccc3c2)cc1F [Compound 10]
86%	6.07	Cn1cc(-c2ccc(CN3Cc4ccc5nncn5c4C3=O)c(F)c2)cn1 [Compound 11]
79%	5.75	Cc1nnc2ccc3c(n12)C(=O)N(Cc1c(F)cc(-c2cnn(C)c2)cc1F)C3 [Compound 14]
76%	5.91	Cc1nnc2ccc3c(n12)C(=O)N(Cc1c(F)cc(-c2ccc4nn(C)cc4c2)cc1F)C3 [Compound 15]
83%	5.92	Cc1nnc2ccc3c(n12)C(=O)N(Cc1ccc(-c2ccc4nn(C)cc4c2)cc1F)C3 [Compound 16]
81%	6.21	Cc1cc(-c2ccc(CN3Cc4ccc5nncn5c4C3=O)c(F)c2)cc2cn(C)nc12 [Compound 17]
82%	5.67	Cc1ccc(-c2ccc(CN3Cc4ccc5nnc(C)n5c4C3=O)c(F)c2)c2cn(C)nc12 [Compound 18]
81%	5.85	Cc1nnc2ccc3c(n12)C(=O)N(Cc1c(F)cc(-c2cccc4nn(C)cc24)cc1F)C3 [Compound 19]
84%	5.68	Cc1cc(-c2ccc(CN3Cc4ccc5nnc(C)n5c4C3=O)c(F)c2)cc2cn(C)nc12 [Compound 20]
36.8%	< 5.00	Cn1cc(-c2ccc(F)c(CN3Cc4ccc5nncn5c4C3=O)c2)cn1 [Compound 21]
35.3%	5.88	Cn1cc2cc(-c3ccc(F)c(CN4Cc5ccc6nncn6c5C4=O)c3)ccc2n1 [Compound 22]
56.4%	5.87	Cn1cc2c(-c3ccc(F)c(CN4Cc5ccc6nncn6c5C4=O)c3)cccc2n1 [Compound 23]
70.1%	5.65	Cn1cc(-c2ccc(CN3Cc4ccc5nccn5c4C3=O)c(F)c2)cn1 [Compound 27]
85.9%	6.17	Cn1cc(-c2ccc(CN3Cc4ccc5ncnn5c4C3=O)c(F)c2)cn1 [Compound 30]
72%	5.85	Cn1cc2c(-c3cc(F)c(CN4Cc5ccc6nccn6c5C4=O)c(F)c3)cccc2n1 [Compound 32]
65%	5.66	Cn1cc2c(-c3ccc(CN4Cc5ccc6nccn6c5C4=O)c(F)c3)cccc2n1 [Compound 33]
62%	5.41	Cn1cc2cc(-c3ccc(CN4Cc5ccc6nccn6c5C4=O)c(F)c3)ccc2n1 [Compound 34]
